Experimental data: patent US10336762B2 (priority 2017, dated 2019)

Columns and labels:
TNFα = assay: cells; assay type: cell-based, human; details: Homo sapiens, Monocyte, LPS-stimulated human monocytes, TNFα content; read-out: EC50 TNF
IRAK4 enzyme = IRAK4 enzyme (Homo sapiens (Human), UniProt Q9NWZ3); assay: biochemical; assay type: biochemical; details: IRAK4 enzyme, TR-FRET, 500 μM ATP
IRAK4 enzyme, sequence (Q9NWZ3 whole entry): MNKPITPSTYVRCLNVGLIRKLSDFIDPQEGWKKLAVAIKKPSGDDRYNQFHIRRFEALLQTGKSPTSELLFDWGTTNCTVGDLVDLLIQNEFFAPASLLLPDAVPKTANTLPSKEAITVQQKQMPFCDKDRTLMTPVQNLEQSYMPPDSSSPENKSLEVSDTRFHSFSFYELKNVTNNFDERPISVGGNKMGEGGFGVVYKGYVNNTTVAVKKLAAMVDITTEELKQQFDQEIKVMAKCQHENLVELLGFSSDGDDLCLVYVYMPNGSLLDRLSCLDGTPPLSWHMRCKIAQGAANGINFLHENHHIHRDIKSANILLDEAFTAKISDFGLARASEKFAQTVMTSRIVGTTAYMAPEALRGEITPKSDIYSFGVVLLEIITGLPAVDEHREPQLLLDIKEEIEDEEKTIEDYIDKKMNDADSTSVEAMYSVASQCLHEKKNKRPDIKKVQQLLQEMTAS

SMILES | EC50 (TNFα) [nM] | IC50 (IRAK4 enzyme) [nM]
CC(C)Nc1cc(-c2ccc3cc(C#N)cnn23)ncc1C(=O)N[C@@H]1CCC[C@H](O)C1 [Example 193, 6-(3-cyanopyrrolo[1,2-b]pyridazin-7-yl)-N-((1R,3S)-3-hydroxycyclohexyl)-4-(isopropylamino) nicotinamide] | 141 | 3
CC(C)(O)[C@H](F)CNC(=O)c1cnc(-c2ccc3cc(C#N)cnn23)cc1N[C@@H]1CCOC1 [Example 194, 6-(3-cyanopyrrolo[1,2-b]pyridazin-7-yl)-N-((R)-2-fluoro-3-hydroxy-3-methylbutyl)-4-(((R)-tetrahydrofuran-3-yl)amino)nicotinamide] | 48 | < 1
CC(C)(O)[C@H](F)CNC(=O)c1cnc(-c2ccc3cc(C#N)cnn23)cc1N[C@H]1CCOC1 [Example 195, 6-(3-cyanopyrrolo[1,2-b]pyridazin-7-yl)-N-((R)-2-fluoro-3-hydroxy-3-methylbutyl)-4-(((S)-tetrahydrofuran-3-yl)amino)nicotinamide] | 37 | < 1
COC(=O)N1Cc2ccc(Nc3cc(-c4ccc5cc(C#N)cnn45)ncc3C(=O)NC[C@@H](F)C(C)(C)O)cc2C1 [Example 196, (R)-methyl 5-((2-(3-cyanopyrrolo[1,2-b]pyridazin-7-yl)-5-((2-fluoro-3-hydroxy-3-methylbutyl)carbamoyl)pyridin-4-yl)amino)isoindoline-2-carboxylate] | 53 | 2
CC(=O)N1Cc2ccc(Nc3cc(-c4ccc5cc(C#N)cnn45)ncc3C(=O)NC[C@@H](F)C(C)(C)O)cc2C1 [Example 197, (R)-4-((2-acetylisoindolin-5-yl)amino)-6-(3-cyanopyrrolo[1,2-b]pyridazin-7-yl)-N-(2-fluoro-3-hydroxy-3-methylbutyl)nicotinamide] | 42 | 1
CC(C)(O)[C@H](F)CNC(=O)c1cnc(-c2ccc3cc(C#N)cnn23)cc1Nc1ccc(CNCC(F)(F)F)cc1 [Example 198, (R)-6-(3-cyanopyrrolo[1,2-b]pyridazin-7-yl)-N-(2-fluoro-3-hydroxy-3-methylbutyl)-4-((4-(((2,2,2-trifluoroethyl)amino)methyl)phenyl)amino)nicotinamide] | 16 | < 1
CC(C)(O)[C@H](F)CNC(=O)c1cnc(-c2ccc3cc(C#N)cnn23)cc1Nc1cnn([C@H]2CCN(C3COC3)C2)c1 [Example 199, 6-(3-cyanopyrrolo[1,2-b]pyridazin-7-yl)-N-((R)-2-fluoro-3-hydroxy-3-methylbutyl)-4-((1-((S)-1-(oxetan-3-yl)pyrrolidin-3-yl)-1H-pyrazol-4-yl)amino)nicotinamide] | 82 | < 1
CC(C)(O)[C@H](F)CNC(=O)c1cnc(-c2ccc3cc(C#N)cnn23)cc1Nc1ccc(CN2CCCC2=O)cc1 [Example 200, (R)-6-(3-cyanopyrrolo[1,2-b]pyridazin-7-yl)-N-(2-fluoro-3-hydroxy-3-methylbutyl)-4-((4-((2-oxopyrrolidin-1-yl)methyl)phenyl)amino) nicotinamide] | 15 | 1
CC(C)(O)[C@H](F)CNC(=O)c1cnc(-c2ccc3cc(C#N)cnn23)cc1Nc1ccc(CN2CCOC2=O)cc1 [Example 201, (R)-6-(3-cyanopyrrolo[1,2-b]pyridazin-7-yl)-N-(2-fluoro-3-hydroxy-3-methylbutyl)-4-((4-((2-oxooxazolidin-3-yl)methyl)phenyl)amino) nicotinamide] | 11 | 1
CC(C)(O)[C@H](F)CNC(=O)c1cnc(-c2ccc3cc(C#N)cnn23)cc1Nc1ccc(CNC(=O)C2CC2)cc1 [Example 202, (R)-6-(3-cyanopyrrolo[1,2-b]pyridazin-7-yl)-4-((4-(cyclopropane-carboxamidomethyl)phenyl)amino)-N-(2-fluoro-3-hydroxy-3-methylbutyl)nicotinamide] | 22 | < 1
CC(C)C(=O)NCc1ccc(Nc2cc(-c3ccc4cc(C#N)cnn34)ncc2C(=O)NC[C@@H](F)C(C)(C)O)cc1 [Example 203, (R)-6-(3-cyanopyrrolo[1,2-b]pyridazin-7-yl)-N-(2-fluoro-3-hydroxy-3-methylbutyl)-4-((4-(isobutyramidomethyl)phenyl)amino) nicotinamide] | 44 | < 1
CCC(=O)NCc1ccc(Nc2cc(-c3ccc4cc(C#N)cnn34)ncc2C(=O)NC[C@@H](F)C(C)(C)O)cc1 [Example 204, (R)-6-(3-cyanopyrrolo[1,2-b]pyridazin-7-yl)-N-(2-fluoro-3-hydroxy-3-methylbutyl)-4-((4-(propionamido-methyl)phenyl)amino)nicotinamide] | 27 | < 1
CC(C)(O)[C@H](F)CNC(=O)c1cnc(-c2ccc3cc(C#N)cnn23)cc1Nc1ccc(CN2CC(F)(F)C2)cc1 [Example 205, (R)-6-(3-cyanopyrrolo[1,2-b]pyridazin-7-yl)-4-((4-((3,3-difluoroazetidin-1-yl)methyl)phenyl)amino)-N-(2-fluoro-3-hydroxy-3-methylbutyl) nicotinamide] | 115 | 1
CC(C)(O)[C@H](F)CNC(=O)c1cnc(-c2ccc3cc(C#N)cnn23)cc1Nc1cnn([C@@H]2CCN(C3COC3)C2)c1 [Example 206, 6-(3-cyanopyrrolo[1,2-b]pyridazin-7-yl)-N-((R)-2-fluoro-3-hydroxy-3-methylbutyl)-4-((1-((R)-1-(oxetan-3-yl)pyrrolidin-3-yl)-1H-pyrazol-4-yl)amino)nicotinamide] | 133 | 1
Cc1ncc(-c2ccc(Nc3cc(-c4ccc5cc(C#N)cnn45)ncc3C(=O)NC[C@@H](F)C(C)(C)O)cc2)o1 [Example 207, (R)-6-(3-cyanopyrrolo[1,2-b]pyridazin-7-yl)-N-(2-fluoro-3-hydroxy-3-methylbutyl)-4-((4-(2-methyloxazol-5-yl)phenyl)amino) nicotinamide] | 96 | 1
CC(C)(O)[C@H](F)CNC(=O)c1cnc(-c2ccc3cc(C#N)cnn23)cc1Nc1cnn([C@@H]2CCNC2)c1 [Example 208, 6-(3-cyanopyrrolo[1,2-b]pyridazin-7-yl)-N-((R)-2-fluoro-3-hydroxy-3-methylbutyl)-4-((1-((R)-pyrrolidin-3-yl)-1H-pyrazol-4-yl)amino) nicotinamide] | 92 | < 1
Cc1nnc(-c2ccc(Nc3cc(-c4ccc5cc(C#N)cnn45)ncc3C(=O)NC[C@@H](F)C(C)(C)O)cc2)o1 [Example 209, (R)-6-(3-cyanopyrrolo[1,2-b]pyridazin-7-yl)-N-(2-fluoro-3-hydroxy-3-methylbutyl)-4-((4-(5-methyl-1,3,4-oxadiazol-2-yl)phenyl)amino) nicotinamide] | 84 | < 1
Cn1cncc1-c1ccc(Nc2cc(-c3ccc4cc(C#N)cnn34)ncc2C(=O)NC[C@@H](F)C(C)(C)O)cc1 [Example 210, (R)-6-(3-cyanopyrrolo[1,2-b]pyridazin-7-yl)-N-(2-fluoro-3-hydroxy-3-methylbutyl)-4-((4-(1-methyl-1H-imidazol-5-yl)phenyl)amino) nicotinamide] | 39 | < 1
CC(=O)NC1(c2ccc(Nc3cc(-c4ccc5cc(C#N)cnn45)ncc3C(=O)NC[C@@H](F)C(C)(C)O)cc2)CC1 [Example 211, (R)-4-((4-(1-acetamidocyclo-propyl)phenyl)amino)-6-(3-cyanopyrrolo[1,2-b]pyridazin-7-yl)-N-(2-fluoro-3-hydroxy-3-methylbutyl)nicotinamide] | 50 | 1
COC(=O)NC1(c2ccc(Nc3cc(-c4ccc5cc(C#N)cnn45)ncc3C(=O)NC[C@@H](F)C(C)(C)O)cc2)CC1 [Example 212, (R)-methyl (1-(4-((2-(3-cyanopyrrolo[1,2-b]pyridazin-7-yl)-5-((2-fluoro-3-hydroxy-3-methylbutyl)carbamoyl)pyridin-4-yl)amino)phenyl)cyclopropyl)carbamate] | 13 | < 1
CC(C)(O)[C@H](F)CNC(=O)c1cnc(-c2ccc3cc(C#N)cnn23)cc1Nc1ccc(N2CCNCC2)nc1 [Example 213, (R)-6-(3-cyanopyrrolo[1,2-b]pyridazin-7-yl)-N-(2-fluoro-3-hydroxy-3-methylbutyl)-4-((6-(piperazin-1-yl)pyridin-3-yl)amino) nicotinamide] | 51 | < 1
COC(=O)NC(C)(C)c1ccc(Nc2cc(-c3ccc4cc(C#N)cnn34)ncc2C(=O)NC[C@@H](F)C(C)(C)O)cc1 [Example 214, (R)-methyl(2-(4-((2-(3-cyanopyrrolo[1,2-b]pyridazin-7-yl)-5-((2-fluoro-3-hydroxy-3-methylbutyl)carbamoyl)pyridin-4-yl)amino)phenyl)propan-2-yl)carbamate] | 36 | 3
CC(=O)NC(C)(C)c1ccc(Nc2cc(-c3ccc4cc(C#N)cnn34)ncc2C(=O)NC[C@@H](F)C(C)(C)O)cc1 [Example 215, (R)-4-((4-(2-acetamido-propan-2-yl)phenyl)amino)-6-(3-cyanopyrrolo[1,2-b]pyridazin-7-yl)-N-(2-fluoro-3-hydroxy-3-methylbutyl)nicotinamide] | 53 | 2
CC(C)(O)[C@H](F)CNC(=O)c1cnc(-c2ccc3cc(C#N)cnn23)cc1Nc1ccc(-c2cnco2)cc1 [Example 216, (R)-6-(3-cyanopyrrolo[1,2-b]pyridazin-7-yl)-N-(2-fluoro-3-hydroxy-3-methylbutyl)-4-((4-(oxazol-5-yl)phenyl)amino) nicotinamide] | 32 | < 1
CC(C)(O)[C@H](F)CNC(=O)c1cnc(-c2ccc3cc(C#N)cnn23)cc1Nc1cncc(OC(F)F)c1 [Example 217, (R)-6-(3-cyanopyrrolo[1,2-b]pyridazin-7-yl)-4-((5-(difluoromethoxy)pyridin-3-yl)amino)-N-(2-fluoro-3-hydroxy-3-methylbutyl)nicotinamide] | 63 | < 1
